Experiments:
[1] = Reinstatement of sucrose-seeking; type: in vivo, Sprague Dawley rats; conditions: for reinstatement of sucrose seeking: 15 min before session, p<0.001 vs 0 mg/kg reinstatement
Text: Sugar is a highly palatable food component. This contributes greatly to the maintenance of the high sugar diets that can lead to obesity. Once a healthier diet has been established, including cessation of consumption of high sugar foods, it can be difficult for individuals to maintain that healthier diet. Specifically, after a period of not consuming the high sugar foods individuals can again start seeking out and consuming those foods. Here we model this resumption of high-sugar diet consumption using a rat model of reinstatement of sucrose self-administration to assess whether SOC-1 might reduce motivation to resume consumption of high-sugar foods.
Male Sprague Dawley rats were water deprived for 19.5 hours before the start of sucrose self-administration. Water deprivation continued for the first five days of self-administration. Rats were allowed to acquire self-administration of sucrose (10%) during 30-minute FR-1 scheduled sessions for 20 days. Following this, rats were exposed to daily 30-minute extinction sessions. Rats met the extinction criteria (minimum of 10 days and less than 15 active lever presses per session for 2 consecutive days) after 10 sessions. Once the extinction criteria were met, rats underwent reinstatement testing. Each reinstatement test session was separated by two extinction days. Prior to each reinstatement session, rats received an injection of vehicle or SOC-1. Fifteen minutes later, they were placed in the testing chamber, where they had access to 0.3 ml sucrose, which they could lever press for. Rats received SOC-1 in an ascending dose sequence (0, 5, 10 mg/kg, ip). On the reinstatement session subsequent to SOC-1 dose testing, an additional vehicle session was conducted to ensure that rats continued to reinstate to sucrose-seeking behaviour when no treatment was given.

[2] = Progressive ratio consumption of a high-sugar high-fat food (M&Ms) by non-human primates; type: in vivo, rhesus monkeys; conditions: for trend of breakpoint with increasing doses: 0, 1, 2, 3 mg/kg IM
Text: Individuals who are overweight or obese frequently report intense cravings for, and motivation to, consume food. Here we model the motivational aspects that can drive excessive food-seeking and consumption, which can lead to overweight and obesity by studying rhesus monkeys who must respond under a progressive ratio to receive M&Ms (which are high in both fat and sugar). A progressive ratio requires subjects to work increasingly harder to obtain reinforcement, modelling the intense motivation and craving characteristic of excessive food-seeking and consumption in individuals who are obese, overweight or at risk of being overweight.
Five female rhesus monkeys were trained to press a lever to self-administer M&Ms. Under a progressive ratio, subjects responded for a reinforcer of either 1 or 5 M&Ms. The ratio began at either 25 (two subjects) or 50 (three subjects) responses per reinforcement and increased by 40% after each reinforcer delivery. SOC-1 was administered IM using a within-subjects design whereby all monkeys received doses of 0, 1, 2 and 3 mg/kg SOC-1. One dose per subject was administered prior to each progressive ratio test session. Breakpoint refers to the number of times the monkeys would press the lever to receive a single reinforcer before giving up.

[3] = Inhibition of weight gain in rats; type: in vivo, Sprague Dawley rats; conditions: 30 mg/kg oral gavage once daily for 10 days; ad libitum standard chow
Protocol: 20 adult male Sprague Dawley rats were given ad libitum access to standard rat chow in their home cage over the course of the experiment. Rats were divided into four equally sized groups and were treated once daily with either 0, 5, 10 or 30 mg/kg SOC-1 via oral gavage for 10 days. Body weights were recorded daily.

[4] = Sucrose self-administration under FR5 schedule; type: in vivo, Sprague Dawley rats; conditions: 10% sucrose; for active lever presses / number of sucrose rewards received: 15 min before session, p<0.001
Text: This model induces high levels of sucrose consumption and sucrose seeking in rats, akin to the unhealthy high sugar diets that are a major determinant of obesity. Excessive consumption of sugar-sweetened beverages are especially associated with increased risk of obesity and type 2 diabetes. Thus, the model chosen here is particularly well suited as it involves escalating voluntary consumption of high-sucrose solution by rats, providing both face and construct validity.
Male Sprague Dawley rats were water deprived for 19.5 hours before the start of sucrose self-administration. Water deprivation continued for the first five days of self-administration. Initially, rats were trained during daily 30 minute FR-1 scheduled sessions to lever press for sucrose (10%). Stable responding under the FR-1 schedule was achieved within 10 days. Rats were then transferred to an FR2 and FR3 schedule for a minimum of three days, and then an FR5 schedule until lever pressing stabilised. Subsequently SOC-1 testing began. Each test day was separated by 2-3 FR-5 scheduled sessions. Rats received SOC-1 in an ascending dose sequence (0, 5, and 10 mg/kg, ip), which was administered 15 minutes prior to the test session. On the final test session, rats received a vehicle injection to ensure rats continued to self-administer sucrose at high levels when not receiving treatment with SOC-1.

[5] = Extinction of food reward-associated lever pressing in food restricted rats; type: in vivo, Long-Evans rats; conditions: all doses tested (5, 10, 20 mg/kg p.o.), 30 min before session
Protocol: Adult male Long-Evans rats were allowed to feed freely until they reached a target weight of 320-340 g. Rats were then maintained at this weight by restricting feeding. Once target weight had been reached, each rat was placed in an operant test chamber and was trained to press the right lever to receive a 45 mg food pellet under an FR1 schedule of reinforcement during daily 15 min sessions.
Once stable responding (right-side lever pressing+/−10% of the mean of the previous three sessions) had been established, drug testing commenced. Rats were pre-treated with SOC-1 (0, 5, 10, 20 mg/kg) administered by oral gavage (p.o.) 30 min prior to the start of the session.

Cn1ncc2c1Nc1ccccc1NC2 [SOC-1]
reinstatement of sucrose seeking ([1]; 5 mg/kg ip): completely prevented reinstatement | reinstatement of sucrose seeking ([1]; 10 mg/kg ip): completely prevented reinstatement | inactive lever presses ([1]; reinstatement sessions, any dose (5, 10 mg/kg ip)): no significant effect | trend of breakpoint with increasing doses ([2]; reinforcement 1 M&M, trend analysis p=0.012): significant linear decrease in breakpoint | breakpoint (lever presses for a single reinforcer before giving up) ([2]; reinforcement 1 M&M, 2 mg/kg IM, p=0.015 vs 0 mg/kg): significantly reduced the breakpoint | breakpoint (lever presses for a single reinforcer before giving up) ([2]; reinforcement 1 M&M, 3 mg/kg IM, p=0.014 vs 0 mg/kg): significantly reduced the breakpoint | trend of breakpoint with increasing doses ([2]; reinforcement 5 M&Ms, trend analysis p=0.025): significant linear decrease in breakpoint | breakpoint (lever presses for a single reinforcer before giving up) ([2]; reinforcement 5 M&Ms, 3 mg/kg IM, p=0.021 vs 0 mg/kg): significantly reduced the breakpoint | weight gain over the 10 treatment days [3]: significantly inhibited weight gain | active lever presses ([4]; 5 mg/kg ip): significantly decreased | number of sucrose rewards received ([4]; 5 mg/kg ip): significantly decreased | active lever presses ([4]; 10 mg/kg ip): significantly decreased | number of sucrose rewards received ([4]; 10 mg/kg ip): significantly decreased | inactive lever presses ([4]; 5 and 10 mg/kg ip): no significant effect | non-reinforced responding for a food pellet [5]: significantly reduced
